In patent EP0732934B1, “LONG-ACTING INJECTION SUSPENSIONS OF AN LHRH ANALOGUE AND A PROCESS FOR THEIR PREPARATION” (Zentaris GmbH, priority 1993, dated 2005):
Where a name gives a salt, the structure may show the parent alone.

Assays:
[1] = system: testosterone plasma levels; assay: Duration of action in the animal: testosterone suppression after subcutaneous application; type: in vivo; conditions: male rats
Method: Suspensions of the precipitates were applied subcutaneously to male rats in the dose 0.5 mg cetrorelix/kg body weight and determined after application as a measure of the effect of the peptide on testosterone plasma levels. The effect of the cetrorelix consists in reduction of the testosterone level. As a reference an injection suspension was tested as well, that prepared according to DE 4023134 A1 and which contained the peptide embonate in poly(lactic acid, glycolic acid) copolymers. The duration of action of a non-sustained release dosage form of cetrorelix was determined via examination of the aqueous solution of cetrorelix acetate.

[2] = in vivo, po; cited from earlier work
[3] = compared to its embonic acid salt, subcutaneous injection in mice; cited from earlier work

Compound: Ac-DNal-DpCl-Phe-DPal-Ser-Tyr-DCit-Leu-Arg-Pro-D-Ala-NH2 [cetrorelix acetate]
- effect of testosterone suppression achieved after the application ([1]; 0.5 mg cetrorelix/kg body weight subcutaneously): 6 h
- duration of testosterone suppression under 1 ng/ml ([1]; 0.5 mg cetrorelix/kg subcutaneously, values for subgroups of animals (acetate: two animals, three further animals; embonate: one animal)): 24 h and up to 48 h

Compound: CN(C)CCCN1c2ccccc2CCc2ccccc21 [imipramine HCl]
- difference to imipramine embonate [2]: no difference

Compound: CCc1nc(N)nc(N)c1-c1ccc(Cl)cc1 [pyrimethamine]
- pharmacokinetic behaviour, plasma level course and AUC [3]: no difference
